This note sets out measurements from ChEMBL document CHEMBL4138232, “O2-(2,4-dinitrophenyl)diazeniumdiolates derivatives: Design, synthesis, cytotoxic evaluation and reversing MDR in MCF-7/ADR cells” (Eur J Med Chem, 2018).

Structures are written as SMILES.

Broadly, the IC50 is the midpoint of a concentration-inhibition curve. Usually inhibition stands for how much of the control response was suppressed.

T1 sequence (P09211 whole entry): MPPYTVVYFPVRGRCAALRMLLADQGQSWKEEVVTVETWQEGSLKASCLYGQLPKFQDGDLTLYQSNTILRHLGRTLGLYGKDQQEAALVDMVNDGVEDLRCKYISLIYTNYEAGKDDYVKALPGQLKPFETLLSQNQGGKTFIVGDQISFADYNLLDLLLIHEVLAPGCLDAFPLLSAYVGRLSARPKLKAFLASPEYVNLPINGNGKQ

The first data set deals with A549. The data set is described as follows: Antiproliferative activity against human A549 cells after 48 hrs by MTT assay relative to control. The data set is classed as functional, cell-based. The following applies: A549, 48 h. (Tetrazolium assays rely on reduction of a dye to a coloured formazan, in cell work by metabolically active cells.)
For `CCOC(=O)N1CCN(/[N+]([O-])=N/Oc2ccc([N+](=O)[O-])cc2[N+](=O)[O-])CC1`, the IC50 was found to be 6.53 µM.
As to `CC(=O)N1N=C(c2cccc(Oc3cc(O/N=[N+](\[O-])N4CCCCC4)c([N+](=O)[O-])cc3[N+](=O)[O-])c2)CC1c1ccc(C)cc1` (stereo not drawn), the midpoint of inhibition, the IC50, lay at 7.31 µM.
Still for that read-out and setting: for `COc1ccc(/C=C/C(=O)c2cccc(Oc3cc(O/N=[N+](\[O-])N4CCCCC4)c([N+](=O)[O-])cc3[N+](=O)[O-])c2)cc1OC` the value was 9.63 µM.

The next data set concerns MCF-10A. Briefly: Antiproliferative activity against human MCF10A cells after 48 hrs by MTT assay relative to control. Type of data set: cell-based.
Conditions: not given
`CCOC(=O)N1CCN(/[N+]([O-])=N/Oc2ccc([N+](=O)[O-])cc2[N+](=O)[O-])CC1` showed an IC50 of 4.91 µM.
The compound `CC(=O)N1N=C(c2cccc(Oc3cc(O/N=[N+](\[O-])N4CCCCC4)c([N+](=O)[O-])cc3[N+](=O)[O-])c2)CC1c1ccc(C)cc1` (stereo not drawn) returned an IC50 of 70.9 µM.
The same measure, in the same setting: next, `COc1ccc(/C=C/C(=O)c2cccc(Oc3cc(O/N=[N+](\[O-])N4CCCCC4)c([N+](=O)[O-])cc3[N+](=O)[O-])c2)cc1OC`: 95.9 µM.

Tested on in the next data set: not listed separately
The data set is described as follows: Selectivity ratio of IC50 for human U2OS cells to IC50 for human MDA-MB-231 cells.
Conditions: not given
Type of data set: functional.
On to `CC(=O)N1N=C(c2cccc(Oc3cc(O/N=[N+](\[O-])N4CCCCC4)c([N+](=O)[O-])cc3[N+](=O)[O-])c2)CC1c1ccc(C)cc1` (stereo not drawn), for which the “Ratio IC50” value stood at 2.1.
In the case of `COc1ccc(/C=C/C(=O)c2cccc(Oc3cc(O/N=[N+](\[O-])N4CCCCC4)c([N+](=O)[O-])cc3[N+](=O)[O-])c2)cc1OC`, the “Ratio IC50” value was 1.

The test system of the next data set is MCF7. The data set is described as follows: Cytotoxicity against ADR-sensitive human MCF7 cells assessed as inhibition of cell viability after 48 hrs by MTT assay. The data set is classed as cell-based. The following applies: MCF7, 48 h.
As to `CC(=O)N1N=C(c2cccc(Oc3cc(O/N=[N+](\[O-])N4CCCCC4)c([N+](=O)[O-])cc3[N+](=O)[O-])c2)CC1c1ccc(C)cc1` (stereo not drawn), the IC50 came out at 22.8 µM.
In the case of `COc1ccc(/C=C/C(=O)c2cccc(Oc3cc(O/N=[N+](\[O-])N4CCCCC4)c([N+](=O)[O-])cc3[N+](=O)[O-])c2)cc1OC`, the IC50 was found to be 32.7 µM.

A further data set concerns U2OS. Briefly: Antiproliferative activity against human U2OS cells after 48 hrs by MTT assay relative to control.
Conditions: not given
The data set is classed as functional, cell-based.
`CCOC(=O)N1CCN(/[N+]([O-])=N/Oc2ccc([N+](=O)[O-])cc2[N+](=O)[O-])CC1` registered an IC50 of 6.27 µM.
Same read-out and setting: next, `CC(=O)N1N=C(c2cccc(Oc3cc(O/N=[N+](\[O-])N4CCCCC4)c([N+](=O)[O-])cc3[N+](=O)[O-])c2)CC1c1ccc(C)cc1` (stereo not drawn): 9.43 µM.
Regarding `COc1ccc(/C=C/C(=O)c2cccc(Oc3cc(O/N=[N+](\[O-])N4CCCCC4)c([N+](=O)[O-])cc3[N+](=O)[O-])c2)cc1OC`, the IC50 worked out at 11.4 µM.

A further data set concerns HCT-116. Briefly: Cytotoxicity against human HCT116 cells overexpressing GST-Pi assessed as inhibition of cell viability at 10 uM after 48 hrs by MTT assay relative to control. The data set is classed as functional. The following applies: HCT-116, 48 h.
As for `CCOC(=O)N1CCN(/[N+]([O-])=N/Oc2ccc([N+](=O)[O-])cc2[N+](=O)[O-])CC1`, the inhibition at 10 µM was 78%.
The same measure, in the same setting: next, `CC(=O)N1N=C(c2cccc(Oc3cc(O/N=[N+](\[O-])N4CCCCC4)c([N+](=O)[O-])cc3[N+](=O)[O-])c2)CC1c1ccc(C)cc1` (stereo not drawn): 75.9%; `COc1ccc(/C=C/C(=O)c2cccc(Oc3cc(O/N=[N+](\[O-])N4CCCCC4)c([N+](=O)[O-])cc3[N+](=O)[O-])c2)cc1OC`: 66.1%.

Tested on in the next data set: not listed separately
The data set is described as follows: Selectivity ratio of IC50 for human MCF10A cells to IC50 for human MDA-MB-231 cells. Type of data set: toxicity. The following applies: MCF10A cells versus MDA-MB-231 cells, read-out: Ratio IC50.
Turning to `CC(=O)N1N=C(c2cccc(Oc3cc(O/N=[N+](\[O-])N4CCCCC4)c([N+](=O)[O-])cc3[N+](=O)[O-])c2)CC1c1ccc(C)cc1` (stereo not drawn), the selectivity ratio came out at 15.5.
The same measure, in the same setting: for `COc1ccc(/C=C/C(=O)c2cccc(Oc3cc(O/N=[N+](\[O-])N4CCCCC4)c([N+](=O)[O-])cc3[N+](=O)[O-])c2)cc1OC` the value was 8.6.

The subject of a further data set is MDA-MB-231. The data set is described as follows: Antiproliferative activity against human MDA-MB-231 cells after 48 hrs by MTT assay relative to control. Type of data set: functional, cell-based. The following applies: MDA-MB-231, 48 h.
As to `CCOC(=O)N1CCN(/[N+]([O-])=N/Oc2ccc([N+](=O)[O-])cc2[N+](=O)[O-])CC1`, inhibition was half-maximal at 5.75 µM (IC50).
On the same count and under the same terms, next, `CC(=O)N1N=C(c2cccc(Oc3cc(O/N=[N+](\[O-])N4CCCCC4)c([N+](=O)[O-])cc3[N+](=O)[O-])c2)CC1c1ccc(C)cc1` (stereo not drawn): 4.57 µM; `COc1ccc(/C=C/C(=O)c2cccc(Oc3cc(O/N=[N+](\[O-])N4CCCCC4)c([N+](=O)[O-])cc3[N+](=O)[O-])c2)cc1OC`: 11.1 µM.

Tested on in a further data set: not listed separately
The data set is described as follows: Selectivity ratio of IC50 for human A549 cells to IC50 for human MDA-MB-231 cells.
Conditions: not given
The data set is classed as functional.
Regarding `CC(=O)N1N=C(c2cccc(Oc3cc(O/N=[N+](\[O-])N4CCCCC4)c([N+](=O)[O-])cc3[N+](=O)[O-])c2)CC1c1ccc(C)cc1` (stereo not drawn), the “Ratio IC50” value is 1.6.
On to `COc1ccc(/C=C/C(=O)c2cccc(Oc3cc(O/N=[N+](\[O-])N4CCCCC4)c([N+](=O)[O-])cc3[N+](=O)[O-])c2)cc1OC`, for which the “Ratio IC50” value was 0.9.

Another data set has as its target T1, Glutathione S-transferase P (Homo sapiens, UniProt P09211). Briefly: Prodrug activation in human HCT116 cells assessed as GST-Pi-mediated NO release at 5 uM after 24 hrs in presence of GST-Pi inhibitor etacrynic acid by nitrate reductase assay. The data set is classed as cell-based.
Conditions: not given
For the compound `CCOC(=O)N1CCN(/[N+]([O-])=N/Oc2ccc([N+](=O)[O-])cc2[N+](=O)[O-])CC1`, the Drug metabolism entry is listed as “Metabolite_Notdetected”.
Still for that read-out and setting: next, `CC(=O)N1N=C(c2cccc(Oc3cc(O/N=[N+](\[O-])N4CCCCC4)c([N+](=O)[O-])cc3[N+](=O)[O-])c2)CC1c1ccc(C)cc1` (stereo not drawn): “Metabolite_Notdetected”.

The target of the next data set is T1, Glutathione S-transferase P. The data set is described as follows: Prodrug activation in human HCT116 cells assessed as GST-Pi-mediated NO release at 5 uM after 24 hrs in presence of NO scavenger carboxy-PTIO by nitrate reductase assay.
Conditions: not given
The data set is classed as cell-based.
With `CCOC(=O)N1CCN(/[N+]([O-])=N/Oc2ccc([N+](=O)[O-])cc2[N+](=O)[O-])CC1`, the Drug metabolism result is recorded as “Metabolite_Notdetected”.
For the compound `CC(=O)N1N=C(c2cccc(Oc3cc(O/N=[N+](\[O-])N4CCCCC4)c([N+](=O)[O-])cc3[N+](=O)[O-])c2)CC1c1ccc(C)cc1` (stereo not drawn), the Drug metabolism entry is “Metabolite_Notdetected”.

For a further data set, the system named is HCT-116. Briefly: Antiproliferative activity against human HCT116 cells after 48 hrs by MTT assay relative to control. The data set is classed as functional, cell-based. The following applies: HCT-116, 48 h.
The compound `CCOC(=O)N1CCN(/[N+]([O-])=N/Oc2ccc([N+](=O)[O-])cc2[N+](=O)[O-])CC1` returned an IC50 of 4.86 µM.
Same read-out and setting: next, `CC(=O)N1N=C(c2cccc(Oc3cc(O/N=[N+](\[O-])N4CCCCC4)c([N+](=O)[O-])cc3[N+](=O)[O-])c2)CC1c1ccc(C)cc1` (stereo not drawn): 1.3 µM; `COc1ccc(/C=C/C(=O)c2cccc(Oc3cc(O/N=[N+](\[O-])N4CCCCC4)c([N+](=O)[O-])cc3[N+](=O)[O-])c2)cc1OC`: 8.88 µM.

The next data set addresses T1, Glutathione S-transferase P. The data set is described as follows: Prodrug activation in human HCT116 cells assessed as GST-Pi-mediated NO release at 5 uM after 24 hrs by nitrate reductase assay. Type of data set: cell-based.
Conditions: not given
Take `CCOC(=O)N1CCN(/[N+]([O-])=N/Oc2ccc([N+](=O)[O-])cc2[N+](=O)[O-])CC1`: the Drug metabolism result is reported as “Metabolite_Detected”.
For the compound `CC(=O)N1N=C(c2cccc(Oc3cc(O/N=[N+](\[O-])N4CCCCC4)c([N+](=O)[O-])cc3[N+](=O)[O-])c2)CC1c1ccc(C)cc1` (stereo not drawn), the Drug metabolism entry is “Metabolite_Detected”.

Tested on in a further data set: not listed separately
Briefly: Cytotoxicity against ADR-sensitive human MCF7 cells assessed as inhibition of cell viability at 10 uM after 48 hrs by MTT assay relative to control. The following applies: read-out: INH. The data set is classed as cell-based.
As to `CC(=O)N1N=C(c2cccc(Oc3cc(O/N=[N+](\[O-])N4CCCCC4)c([N+](=O)[O-])cc3[N+](=O)[O-])c2)CC1c1ccc(C)cc1` (stereo not drawn), the cytotoxicity at 48 h, 10 µM was found to be 5.16%.
On the same count and under the same terms, next, `COc1ccc(/C=C/C(=O)c2cccc(Oc3cc(O/N=[N+](\[O-])N4CCCCC4)c([N+](=O)[O-])cc3[N+](=O)[O-])c2)cc1OC`: 8.24%.

The species named for a further data set is Homo sapiens. Briefly: Inhibition of MDR in human MCF7/ADR cells assessed as potentiation of adriamycin-induced antiproliferative activity by measuring fold reduction in adriamycin IC50 at 10 uM after 48 hrs by MTT assay.
Conditions: not given
Type of data set: cell-based.
For `CC(=O)N1N=C(c2cccc(Oc3cc(O/N=[N+](\[O-])N4CCCCC4)c([N+](=O)[O-])cc3[N+](=O)[O-])c2)CC1c1ccc(C)cc1` (stereo not drawn), the fold change (FC) stood at 18.
Still for that read-out and setting: for `COc1ccc(/C=C/C(=O)c2cccc(Oc3cc(O/N=[N+](\[O-])N4CCCCC4)c([N+](=O)[O-])cc3[N+](=O)[O-])c2)cc1OC` the value was 10.2.

Tested on in a further data set: not listed separately
The data set is described as follows: Selectivity ratio of IC50 for human HCT116 cells to IC50 for human MDA-MB-231 cells. The data set is classed as functional.
Conditions: not given
As to `CC(=O)N1N=C(c2cccc(Oc3cc(O/N=[N+](\[O-])N4CCCCC4)c([N+](=O)[O-])cc3[N+](=O)[O-])c2)CC1c1ccc(C)cc1` (stereo not drawn), the “Ratio IC50” value was determined as 0.3.
Regarding `COc1ccc(/C=C/C(=O)c2cccc(Oc3cc(O/N=[N+](\[O-])N4CCCCC4)c([N+](=O)[O-])cc3[N+](=O)[O-])c2)cc1OC`, the “Ratio IC50” value came out at 0.8.
